Test results as given in patent publication US6960430B2, “Screening methods for compounds useful in the regulation of cell proliferation” (priority 1999, dated 2005).
“Also recorded” adds a separate entry of the source.

Columns and labels:
[1] = system: tetracycline-regulated transactivator protein tTA; assay: Hsp72 expression from adenovirus vector controlled by tetracycline-regulated transactivator in Rat-1 cells, immunoblot; format: cell-based; conditions: 20 nM
Text: Recombinant adenovirus vector expressing Hsp72 (ADTR5Hsp72-GFP, curtesy of Dr. Mosser, Biotechnology Research Institute, Montreal) was constructed by cloning a dicistronic transcription unit encoding Hsp72 and Aequorea Victoria green fluorescent protein gene, separated by the encephalomyocarditis virus internal ribosome entry site from pTR-DC/Hsp70-GFP (Mosser et al., 1997a, Mol. Cell Biol, 17: 5317-5327; Mosser et al., 1997b, Biotechniques 22: 150-161) into an adenovirus transfer vector. Expression of this transcription unit is controlled by the tetracycline-regulated transactivator protein tTA (Mosser et al., 1997b, Biotechniques 22: 150-161) which we expressed from a separate recombinant adenovirus. Recombinant adenoviruses were generated by standard techniques as detailed by (Jani et al., 1997, J. Virol. Methods 64: 111-124). Viruses were used at stock concentration of 10^10 pfu/ml. […] Two-ml cell cultures grown in liquid medium in 35 mm dishes were infected in the presence or the absence of anhydrotetracycline with 3·10^7 pfu of each virus, sufficient for infection of almost 100% cells, and additional 10^7 pfu of each virus was added on days three and seven. After 24 hours incubation with viruses, cells were washed with PBS and placed in fresh media with or without anhydrotetracycline. […]

JNK phosphatase(s) [2] = conditions: various cell lines; cited from earlier work
MVH cells = assay: Apoptosis by Hoechst-33342 staining in MVH cells (Rat-1 variant constitutively expressing Hsp72); format: cell-based; conditions: heat shock 45° C., 50 min, 0.5 mM, apoptosis assessed 7 hr after treatment
Description: The level of apoptosis was measured by fluorescent microscopy using Hoechst-33342 DNA-specific dye (10 μM). Shrinked cells with condensed or fragmented nuclei were counted as apoptotic. Cells were washed twice with PBS on a dish, aspirated and lysed by thoroughly scraping with a plastic scraper in 200 μL lysis buffer per a 35 mm dish (40 mM HEPES, pH 7.5; 50 mM KCl; […]; 2 mM DTT, 1 mM Na3VO4; 50 mM β-glycerophosphate; 50 mM NaF; 5 mM EDTA; 5 mM EGTA; 1 mM PMSF; 1 mM benzamedine; 5 μg/ml of each: leupeptine, pepstatine A, aprotenin). The lysates were clarified by centrifugation in a microcentrifuge at 15,000 rpm for 5 min. Total protein concentration was measured in the supernatants after which they were diluted with the lysis buffer to achieve equivalent concentration in all samples. All procedures were performed at 4° C.

JNK phosphatase(s) [3] = assay: JNK inactivation (dephosphorylation) after heat shock in Hsp72-expressing MVH cells, immunoblot with antibody to phospho-JNK; format: cell-based, rat; conditions: for JNK inactivation / JNK dephosphorylation in heat-shocked MVH cells: 0.5 mM added 1 hr after heat shock (45° C., 50 min), recovery at 37° C., JNK1 by phospho-JNK antibody; for JNK activity, drug alone: unstressed cells, vanadate alone
Text: Another assay for JNK activity allowed us to measure separately activity of two major isoforms (46 kDa JNK1 and 54 kDa JNK2) using JNK antibody specific to activated (phosphorylated) form of JNK (Promega, Wis.). For immunoblot analysis samples were subjected to Western immunoblotting. Secondary antibodies conjugated with peroxidase were visualized with ECL substrates (Amersham, Arlington Heights, Ill.) and resulting films were quantified by densitometry. Measurement of JNK phosphatase activity. In vivo INK phosphatase activity was measured as described earlier (Meriin, A. B., et al., 1999, Mol. Cell Biol. (In press)). […] […] The rate of JNK dephosphorylation was assessed under these conditions by immunoblotting with antibody which recognizes the activated (phosphorylated) form of JNK specifically.

SMILES | Hsp72 expression after infection with both adenoviruses [1] | suppression of JNK phosphatase(s) (JNK phosphatase(s) [2]) | heat-induced apoptosis of MVH cells (thermoresistance, anti-apoptotic effect of Hsp72) (MVH cells; listed as Ortho-vanadate) | heat-induced apoptosis of MVH cells (thermoresistance, anti-apoptotic effect of Hsp72) (MVH cells; listed as vanadate) | JNK inactivation / JNK dephosphorylation in heat-shocked MVH cells (JNK phosphatase(s) [3]) | JNK inactivation / JNK dephosphorylation in heat-shocked MVH cells (JNK phosphatase(s) [3]; listed as Ortho-vanadate) | JNK activity, drug alone (JNK phosphatase(s) [3]; listed as Ortho-vanadate) | JNK activity, drug alone (JNK phosphatase(s) [3]; listed as vanadate)
Cc1c2c(c(O)c3c(O)cccc13)C(=O)[C@]1(O)C(=O)C(C(N)=O)=C(O)[C@@H](N(C)C)[C@@H]1C2 [anhydrotetracycline] | expression of Hsp72 in the absence of tetracycline but not in the presence of 20 nM of anhydrotetracycline | – | – | – | – | – | – | –
[O]=[V]([O-])([O-])[O-] [ortho-vanadate] | – | effectively suppresses JNK phosphatase(s) | abolishes thermoresistance | completely reversed anti-apoptotic effect of Hsp72; also recorded: dramatically increased | strongly inhibited JNK inactivation | inhibits JNK dephosphorylation | no significant effect on JNK activity | affected neither JNK activity
